Laboratory results taken from patent publication US8003669B2, “Remedy for sleep disturbance” (Mitsubishi Tanabe Pharma Corporation, priority 2002, dated 2011).

Key:
human ORL-1 receptor = human ORL-1 receptor (Homo sapiens, UniProt P41146); assay: Agonist action: inhibition of forskolin-stimulated cAMP elevation in HEK293 cells; assay type: cell-based; details: HEK293 cells expressing human ORL-1 receptor, forskolin 1 μmol/L
rats = assay: Antagonistic action of the ORL-1 receptor antagonist on the phase advancement by the ORL-1 receptor agonist; assay type: in vivo, rat; details: constant dark, oral
ORL-1 receptor = molecular target: T1, ORL-1 receptor (Rattus norvegicus, UniProt P35370); assay: ORL-1 receptor binding test ([3H]-nociceptin); details: receptor prepared from cerebral cortex of rat
T1 construct: a standard product of the receptor prepared from cerebral cortex of rat; from tissue; host or cells: rat cerebral cortex
T1 sequence (P35370 whole entry): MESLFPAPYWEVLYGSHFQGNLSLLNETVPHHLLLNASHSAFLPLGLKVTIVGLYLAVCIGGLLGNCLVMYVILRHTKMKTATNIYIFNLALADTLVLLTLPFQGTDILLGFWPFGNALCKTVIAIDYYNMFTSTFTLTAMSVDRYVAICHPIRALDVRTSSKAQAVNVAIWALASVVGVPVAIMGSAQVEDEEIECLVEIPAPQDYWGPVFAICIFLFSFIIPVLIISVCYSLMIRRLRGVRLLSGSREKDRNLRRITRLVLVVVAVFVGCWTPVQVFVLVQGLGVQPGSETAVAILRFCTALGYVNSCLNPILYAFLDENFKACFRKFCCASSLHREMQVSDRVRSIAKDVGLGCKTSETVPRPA

Sequence of human ORL-1 receptor (P41146 whole entry): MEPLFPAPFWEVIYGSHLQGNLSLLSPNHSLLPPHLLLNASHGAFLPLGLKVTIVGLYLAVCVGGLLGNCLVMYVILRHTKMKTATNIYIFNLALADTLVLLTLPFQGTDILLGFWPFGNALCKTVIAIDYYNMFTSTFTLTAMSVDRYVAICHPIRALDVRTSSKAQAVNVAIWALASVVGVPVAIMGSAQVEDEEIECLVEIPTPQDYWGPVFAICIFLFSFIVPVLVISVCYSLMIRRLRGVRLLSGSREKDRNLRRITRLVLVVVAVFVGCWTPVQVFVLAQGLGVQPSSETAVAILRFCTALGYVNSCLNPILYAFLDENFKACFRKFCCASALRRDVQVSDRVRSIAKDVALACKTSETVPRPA

inhibition of cAMP production (ORL-1 receptor agonistic activity) (human ORL-1 receptor): did not inhibit cAMP production
IC50 (ORL-1 receptor; 25° C., 20 minutes, read-out: IC50 value, inhibition of the binding of [3H]-nociceptin): 500 nM
Ki (ORL-1 receptor; Ki=IC50/(1+L/Kd), read-out: Ki value, inhibition of the binding of [3H]-nociceptin): 60.6 nM
SMILES: CCc1ccc(OCc2ccccc2C(=O)Nc2ccc3nc(C)cc(N)c3c2)cc1.Cl [compound D, N-(4-amino-2-methylquinolin-6-yl)-2-(4-ethylphenoxymethyl)benzamide hydrochloride]
phase shift for the ORL-1 receptor antagonist alone (rats): no phase shift was observed
